According to patent US20230407243A1, “GENETIC PLATFORM TO INVESTIGATE THE FUNCTIONS OF BACTERIAL DRUG EFFLUX PUMPS” (priority 2022, published 2023):
Read-outs that look alike come from different tables or passages of the source.

Assays:
Assay type in all cases: cell-based, Escherichia coli
[1] = tested on: wild-type E. coli K-12 str. BW25113; experiment: microbe, parasite or virus in culture; conditions: Escherichia coli, BW25113, technical duplicate
Procedure, shortened: (§1)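 MIC derived from pre-incubation-corrected OD600 after 18 h growth at 37° C. (900 rpm) in MHB II. Inoculum was cells from 18 h LB culture adjusted to OD600 ~1.0 in PBS, then diluted 1/2000; compounds two-fold serially titrated in duplicate, DMSO as solvent control.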

E. coli EKO-35 = experiment: microbe, parasite or virus in culture; conditions: for MIC: Escherichia coli, EKO35, technical duplicate
Procedure, shortened: as §1

E. coli ΔtolC = experiment: microbe, parasite or virus in culture; conditions: for MIC: Escherichia coli, 18 h, read-out: Minimum Inhibitory Concentration, ΔtolC; for Minimum inhibitory concentration (MIC), ΔtolC: Table 10, without pore, technical duplicate
Procedure, shortened: as §1

EKO-35-Pore = experiment: MIC susceptibility profiling, porinated strain; conditions: for MIC: Escherichia coli, technical duplicate
Procedure, shortened: (§2)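 E. coli strains carrying a genomically integrated constitutive fhuA ΔC/Δ4L pore were grown 18 h in LB at 37 °C, then diluted 1/2000 in MHB II from OD600 ~1.0. Compounds were tested in duplicate, 2-fold serial titration, for 18 h at 37 °C with shaking. MIC came from OD600 with the pre-incubation background subtracted.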

[2] = tested on: EKO-35 araC::acrBD408A Pore; experiment: MIC susceptibility profiling, porinated efflux platform; conditions: for MIC: Escherichia coli, EKO-35 araC::acrBD408A Pore, technical duplicate, read-out: Minimum inhibitory concentration
Procedure, shortened: as §2

EKO-35 araC::emrKY Pore = experiment: as above; conditions: for MIC: Escherichia coli, EKO-35 araC::emrKY Pore, technical duplicate, read-out: Minimum inhibitory concentration
Procedure, shortened: as §2

EKO-35 araC::acrD Pore = experiment: as above; conditions: for MIC: Escherichia coli, Table 14A, porinated, technical duplicate, read-out: Minimum inhibitory concentration, EKO-35 araC::acrD Pore
Procedure, shortened: as §2

EKO-35 araC::acrBD408A = experiment: MIC susceptibility profiling, efflux platform; conditions: for MIC: Escherichia coli, Table 13B, non-porinated, technical duplicate, read-out: Minimum Inhibitory Concentration, EKO-35 araC::acrBD408A
Procedure, shortened: as §1

EKO-35 araC::mdtEF = experiment: MIC susceptibility profiling, efflux platform; conditions: for MIC: Escherichia coli, Table 13A, non-porinated, technical duplicate, read-out: Minimum Inhibitory Concentration, EKO-35 araC::mdtEF
Procedure, shortened: as §1

EKO-35 araC::acrD = experiment: MIC susceptibility profiling, efflux platform; conditions: for MIC: Escherichia coli, Table 13A, non-porinated, technical duplicate, read-out: Minimum Inhibitory Concentration, EKO-35 araC::acrD
Procedure, shortened: as §1

[3] = tested on: EKO-35 araC::mexCD (MexCD from P. aeruginosa); experiment: MIC susceptibility profiling, efflux platform; conditions: for MIC: Table 13B, non-porinated, technical duplicate, read-out: Minimum Inhibitory Concentration, EKO-35 araC::mexCD
Procedure, shortened: as §1

EKO-35 araC::acrEF = experiment: MIC susceptibility profiling, efflux platform; conditions: for MIC: Escherichia coli, Table 13A, non-porinated, technical duplicate, read-out: Minimum Inhibitory Concentration, EKO-35 araC::acrEF
Procedure, shortened: as §1

EKO-35 araC::mdtBC = experiment: MIC susceptibility profiling, efflux platform; conditions: for MIC: Escherichia coli, Table 13B, non-porinated, technical duplicate, read-out: Minimum Inhibitory Concentration, EKO-35 araC::mdtBC
Procedure, shortened: as §1

EKO-35 araC::acrB = experiment: MIC susceptibility profiling, efflux platform; conditions: for MIC: Escherichia coli, Table 13A, non-porinated, technical duplicate, read-out: Minimum Inhibitory Concentration, EKO-35 araC::acrB
Procedure, shortened: as §1

EKO-35 araC::emrAB = experiment: MIC susceptibility profiling, efflux platform; conditions: for MIC: Escherichia coli, Table 13B, non-porinated, technical duplicate, read-out: Minimum Inhibitory Concentration, EKO-35 araC::emrAB
Procedure, shortened: as §1

EKO-35 araC::macAB = experiment: MIC susceptibility profiling, efflux platform; conditions: for MIC: Escherichia coli, Table 13B, non-porinated, technical duplicate, read-out: Minimum Inhibitory Concentration, EKO-35 araC::macAB
Procedure, shortened: as §1

EKO-35 araC::emrKY = experiment: MIC susceptibility profiling, efflux platform; conditions: for MIC: Escherichia coli, Table 13B, non-porinated, technical duplicate, read-out: Minimum Inhibitory Concentration, EKO-35 araC::emrKY
Procedure, shortened: as §1

wild-type (WT) K-12-Pore = experiment: microbe, parasite or virus in culture; conditions: Escherichia coli, technical duplicate
Procedure, shortened: as §2

ΔtolC-Pore = experiment: microbe, parasite or virus in culture; conditions: for MIC: Escherichia coli, 18 h, read-out: Minimum inhibitory concentration, ΔtolC-Pore; for Minimum inhibitory concentration (MIC), Pore ΔtolC: Table 10, with pore, technical duplicate
Procedure, shortened: as §2

[4] = Table 10, without pore, read-out: Minimum inhibitory concentration (MIC), K-12
[5] = Table 13A, non-porinated, read-out: Minimum Inhibitory Concentration, K-12
[6] = Table 10, without pore, read-out: Minimum inhibitory concentration (MIC), EKO-35
[7] = Table 13A, non-porinated, read-out: Minimum Inhibitory Concentration, EKO-35
[8] = Table 10, with pore, read-out: Minimum inhibitory concentration (MIC), Pore EKO-35
[9] = Table 14A, porinated, read-out: Minimum inhibitory concentration, EKO-35-Pore
[10] = Table 10, with pore, read-out: Minimum inhibitory concentration (MIC), Pore K-12
[11] = Table 14A, porinated, read-out: Minimum inhibitory concentration, K-12 (WT)-Pore

| SMILES | MIC [1, 4] | MIC [1, 5] | MIC (E. coli EKO-35; [6]) | MIC (E. coli EKO-35; [7]) | MIC (E. coli ΔtolC) | Minimum inhibitory concentration (MIC), ΔtolC (E. coli ΔtolC) | MIC (EKO-35-Pore; [8]) | MIC (EKO-35-Pore; [9]) | MIC [2] | MIC (EKO-35 araC::emrKY Pore) | MIC (EKO-35 araC::acrD Pore) | MIC (EKO-35 araC::acrBD408A) | MIC (EKO-35 araC::mdtEF) | MIC (EKO-35 araC::acrD) | MIC [3] | MIC (EKO-35 araC::acrEF) | MIC (EKO-35 araC::mdtBC) | MIC (EKO-35 araC::acrB) | MIC (EKO-35 araC::emrAB) | MIC (EKO-35 araC::macAB) | also measured |
| --- | --- | --- | --- | --- | --- | --- | --- | --- | --- | --- | --- | --- | --- | --- | --- | --- | --- | --- | --- | --- | --- |
| Cc1onc(-c2ccccc2)c1C(=O)N[C@@H]1C(=O)N2[C@@H]1SC(C)(C)[C@@H]2C(=O)O [oxacillin] | 160 µg/mL | 160 µg/mL | 0.625 µg/mL | 0.625 µg/mL | 0.625 µg/mL | 0.625 µg/mL | 0.313 µg/mL | 0.313 µg/mL | 0.156 µg/mL | 0.313 µg/mL | 20 µg/mL | 1.25 µg/mL | 20 µg/mL | 160 µg/mL | 20 µg/mL | 160 µg/mL | 0.625 µg/mL | 160 µg/mL | 1.25 µg/mL | 0.625 µg/mL | efflux pump-mediated resistance vs EKO-35 (EKO-35 araC::acrD; AcrD): confirmed; MIC (EKO-35 araC::emrKY): 0.625 µg/mL; MIC (wild-type (WT) K-12-Pore; [10]): 40 µg/mL; MIC (wild-type (WT) K-12-Pore; [11]): 40 µg/mL; MIC (ΔtolC-Pore): 0.313 µg/mL; Minimum inhibitory concentration (MIC), Pore ΔtolC (ΔtolC-Pore): 0.313 µg/mL |
| COc1ccc(C[C@H](N)C(=O)N[C@H]2[C@@H](O)[C@H](n3cnc4c(N(C)C)ncnc43)O[C@@H]2CO)cc1 [puromycin] | 50 µg/mL | 50 µg/mL | 1.56 µg/mL | 1.56 µg/mL | 3.12 µg/mL | 3.125 µg/mL | 0.781 µg/mL | 0.781 µg/mL | 0.781 µg/mL | 1.56 µg/mL | 0.781 µg/mL | 1.56 µg/mL | 1.56 µg/mL | 1.56 µg/mL | 6.25 µg/mL | 6.25 µg/mL | 1.56 µg/mL | 100 µg/mL | 1.56 µg/mL | 1.56 µg/mL | Fold change of MICs (E. coli EKO-35; EKO-35 compared to EKO-35 (reference)): 1 fold; Fold changes of MICs (EKO-35-Pore; EKO-35-Pore compared to EKO-35-Pore (reference)): 1 fold; Fold changes of MICs ([2]; EKO-35 araC::acrBD408A Pore compared to EKO-35-Pore): 1 fold; Fold changes of MICs (EKO-35 araC::emrKY Pore; EKO-35 araC::emrKY Pore compared to EKO-35-Pore): 2 fold; Fold changes of MICs (EKO-35 araC::acrD Pore; EKO-35 araC::acrD Pore compared to EKO-35-Pore): 1 fold; Fold change of MICs (EKO-35 araC::acrBD408A; EKO-35 araC::acrBD408A compared to EKO-35): 1 fold; Fold change of MICs (EKO-35 araC::mdtEF; EKO-35 araC::mdtEF compared to EKO-35): 1 fold; Fold change of MICs (EKO-35 araC::acrD; EKO-35 araC::acrD compared to EKO-35): 1 fold; Fold change of MICs ([3]; EKO-35 araC::mexCD compared to EKO-35): 4 fold; Fold change of MICs (EKO-35 araC::acrEF; EKO-35 araC::acrEF compared to EKO-35): 4 fold; Fold change of MICs (EKO-35 araC::mdtBC; EKO-35 araC::mdtBC compared to EKO-35): 1 fold; Fold change of MICs (EKO-35 araC::acrB; EKO-35 araC::acrB compared to EKO-35): 64 fold; Fold change of MICs (EKO-35 araC::emrAB; EKO-35 araC::emrAB compared to EKO-35): 1 fold; Fold change of MICs (EKO-35 araC::macAB; EKO-35 araC::macAB compared to EKO-35): 1 fold; Fold change of MICs (EKO-35 araC::emrKY; EKO-35 araC::emrKY compared to EKO-35): 1 fold; MIC (EKO-35 araC::emrKY): 1.56 µg/mL; MIC (wild-type (WT) K-12-Pore; [10]): 50 µg/mL; MIC (wild-type (WT) K-12-Pore; [11]): 50 µg/mL; MIC (ΔtolC-Pore): 1.56 µg/mL; Minimum inhibitory concentration (MIC), Pore ΔtolC (ΔtolC-Pore): 1.563 µg/mL |
